Earlier results as cited in US20070148074A1, “Nanoparticle based stabilization of ir fluorescent dyes” (priority 2003, published 2007).

Key:
[1] = human body, administered intravenously

For `CC1(C)C(/C=C/C=C/C=C/C=C2\N(CCCCS(=O)(=O)O)c3ccc4ccccc4c3C2(C)C)=[N+](CCCCS(=O)(=O)[O-])c2ccc3ccccc3c21` [ICG, indocyanine green], the elimination half-life [1] is given as 2 to 4 min and the “fraction of dye in plasma that is protein-bound” value is given as about 95%.
